The values that follow come from paper PMC11926786, “Effect of Lipidation on the Structure, Oligomerization, and Aggregation of Glucagon-like Peptide 1” (Bioconjugate Chemistry, 2025).

The nature of data set [1]: Aggregation behaviour and aggregate morphology of aged samples (TEM, far-UV CD). In kind it is physicochemical. The note with it: 25 mM phosphate.
Data set [2] is described as follows: pH-dependent peptide solubility. In kind it is physicochemical. The conditions noted are these: from solid: ca. 0.5 mg lyophilized powder + 500 μL 25 mM phosphate, citrate or Tris; pH 2.5 to 8.5 in 0.5 steps; ca. 5 min, room temperature; 0.22 μm filtered; A280; soluble = concentrations above 50 μM, insoluble = not above 1 μM. The protocol: Figure 1D illustrates the solubility of each lipidated analogue and nonlipidated GLP-1-Am at different pH values. […] Isoelectric points (pI) of the analogues were determined using isoelectric focusing gel electrophoresis (Figure S1), and the determined values are given in Figure 1D in the column next to the solubility chart. […] It is interesting to note that these both form well-defined oligomeric states (see later sections), in which it is likely that the local chemical environment of the individual ionizable groups has changed. […] Although there have been attempts to rationalize the solubility and even develop solubility predictors for peptide/protein analogs containing non-natural amino acids and amino acid derivatives, the prediction of the solubility of lipidated analogues remains challenging due to its complexity.[43],[44]
The peptide solubility was tested in the individual buffers differing by 0.5 on the pH scale (i.e., pH 2.5, 3.0, 3.5, 4.0, ...). […] Subsequently, the concentration of the peptide was determined spectrophotometrically (Cary 60 UV–vis, Agilent Technologies) using the absorption at 280 nm and a theoretical extinction coefficient of 6990 M^–1 cm^–1 at 280 nm.

Data set [3] in a line: Isoelectric point by isoelectric focusing gel electrophoresis. In kind it is physicochemical. The note with it: printed in Figure 1D. The procedure:
Figure 1D illustrates the solubility of each lipidated analogue and nonlipidated GLP-1-Am at different pH values. […] Isoelectric points (pI) of the analogues were determined using isoelectric focusing gel electrophoresis (Figure S1), and the determined values are given in Figure 1D in the column next to the solubility chart.

Data set [4] in a line: Far-UV CD of freshly dissolved samples, α-helical content from MRE222. It counts as physicochemical. The note with it: 85 μM, 25 mM phosphate pH 7.5, room temperature, estimated from MRE222.
A short description of data set [5]: Size-exclusion chromatography of oligomeric species. It counts as physicochemical. The conditions noted are these: freshly prepared, 135 μM. The protocol: Analytical SEC was performed on an KTA FPLC system (GE Healthcare), using a Superdex 200 Increase 10/300 column (GE Healthcare). Samples were loaded using a 200 μL loop. Prior to loading, the samples were filtered through a 0.22 μm filter (Millex, PVDF Membrane) to avoid blocking the column by large aggregates. All samples were eluted at a flow rate of 0.75 mL min^–1 at room temperature, and UV absorbance detection at 280 nm through a 0.5 cm flow cell was used. A set of globular protein standards (GE Healthcare) was used to construct a calibration curve for the column, Figure S9.
Calibration curve for Superdex 200 Increase 10/300 column
Globular protein standards (GE Healthcare) were used for column calibration, (Fig. S9C). The gel phase
distribution parameter, Kav, of each protein standard was calculated as
where Ve is an elution volume of a protein standard, V0 is the void volume of the column (determined
used. The logarithm of the molecular weight of each protein standard was plotted against its Kav. A
linear regression of this plot was used to determine the molecular weight of any eluting species
For Stoke’s radius (RSt), a calibration plot of √−log(Kav) against
RSt and a linear regression was used.
Figure S9: Calibration of a Superdex 200 Increase 10/300 column. Calibrations on the molecular weight (A) and on the Stoke’s […]
(Size exclusion chromatography separates by hydrodynamic size, large species first.)

Data set [6] is described as follows: Sedimentation velocity analytical ultracentrifugation of oligomeric species. It counts as physicochemical. The conditions noted are these: freshly prepared samples, pH 7.5; determined by both AUC and SEC. The protocol:
Sedimentation velocity experiments were performed using a Beckman Optima XL-I Analytical Ultracentrifuge equipped with an An-60 Ti rotor. Samples of 85 μM peptide concentration were freshly prepared before the measurement. After a 2 h temperature equilibration of samples in the centrifuge to 20 °C, the experiment was performed with centrifugation at 50,000 rpm. The interference sedimentation curves were collected as 150 scans (approximately 12 h run time) and fitted to a continuous c(s) distribution model implemented in the Sedfit program.[48],[52],[53] The sedimentation coefficient was corrected for the standard state of the water at 20 °C (s20,w). The molecular weight and relative amount of each detected species were calculated using the Sedfit program.

The conditions of data set [7]: cited from earlier work.
On the set-up of data set [8]: method as in 2 sources, one per row (each row's own in cited_ref): ref Venanzi et al., 20 ||| ref 20 = [20]; PMID 32780784; doi:10.1039/D0SM01011A; Venanzi M.; Savioli M.; Cimino R.; Gatto E.; Palleschi A.; Ripani G.; Cicero D.; Placidi E.; Orvieto F.; Bianchi E. A Spectroscopic and Molecular Dynamics Study on the Aggregation Process of. The conditions noted are these: semaglutide without C-terminal amidation, cited from earlier work.

Entries after “also recorded” stand apart in the source; their conditions may differ. Like-named read-outs stand apart in the source and are kept apart here. *1 amine or outer side, *2 acyl side, *3 side chain or, on linkers, in order; H or OH if unused. Where a SMILES comes first, the peptide text is derived from it. Side-chain parts run from the residue outwards. The star is where a group is joined. γGlu = O=C(O)[C@H](CCC(=O)[*:2])N[*:1]; Palmitoyl = CCCCCCCCCCCCCCCC(=O)*

Take `CCCCCCCCCCCCCCCC(=O)N[C@@H](CCC(=O)NCCCC[C@H](NC(=O)[C@@H](N)Cc1c[nH]cn1)C(=O)N[C@@H](CCC(=O)O)C(=O)NCC(=O)N[C@H](C(=O)N[C@@H](Cc1ccccc1)C(=O)N[C@H](C(=O)N[C@@H](CO)C(=O)N[C@@H](CC(=O)O)C(=O)N[C@H](C(=O)N[C@@H](CO)C(=O)N[C@@H](CO)C(=O)N[C@@H](Cc1ccc(O)cc1)C(=O)N[C@@H](CC(C)C)C(=O)N[C@@H](CCC(=O)O)C(=O)NCC(=O)N[C@@H](CCC(N)=O)C(=O)N[C@@H](C)C(=O)N[C@@H](C)C(=O)N[C@@H](CCCNC(=N)N)C(=O)N[C@@H](CCC(=O)O)C(=O)N[C@@H](Cc1ccccc1)C(=O)N[C@H](C(=O)N[C@@H](C)C(=O)N[C@@H](Cc1c[nH]c2ccccc12)C(=O)N[C@@H](CCCNC(=N)N)C(=O)N[C@H](C(=O)N[C@@H](CCCNC(=N)N)C(=O)NCC(=O)N[C@@H](CCCNC(=N)N)C(=O)NCC(N)=O)C(C)C)[C@@H](C)CC)C(C)C)[C@@H](C)O)[C@@H](C)O)C(=O)O` [GLP-1-Am (2, γ-Glu-palm)] (H-HK([γGlu-Palmitoyl])EGTFTSDVSSYLEGQAAREFIAWRVRGRG-NH2): the “aggregation at pH 3” value in data set [1] was “rapidly aggregate forming short fibril-like species with high β-sheet content; also recorded: analogue not soluble; (at pH 3, there is rapid formation of β-structure-rich fibrils)”.

With `CC[C@H](C)[C@H](NC(=O)[C@H](Cc1ccccc1)NC(=O)[C@H](CCC(=O)O)NC(=O)[C@H](CCCCN)NC(=O)[C@H](C)NC(=O)[C@H](C)NC(=O)[C@H](CCC(N)=O)NC(=O)CNC(=O)[C@H](CCC(=O)O)NC(=O)[C@H](CC(C)C)NC(=O)[C@H](Cc1ccc(O)cc1)NC(=O)[C@H](CO)NC(=O)[C@H](CO)NC(=O)[C@@H](NC(=O)[C@H](CC(=O)O)NC(=O)[C@H](CO)NC(=O)[C@@H](NC(=O)[C@H](Cc1ccccc1)NC(=O)[C@@H](NC(=O)CNC(=O)[C@H](CCC(=O)O)NC(=O)[C@H](C)NC(=O)[C@@H](N)Cc1cnc[nH]1)[C@@H](C)O)[C@@H](C)O)C(C)C)C(=O)N[C@@H](C)C(=O)N[C@@H](Cc1c[nH]c2ccccc12)C(=O)N[C@@H](CC(C)C)C(=O)N[C@H](C(=O)N[C@@H](CCCCN)C(=O)NCC(=O)N[C@@H](CCCNC(=N)N)C(=O)NCC(N)=O)C(C)C` [GLP-1-Am], in data set [2], the “pH range of solubility” value is on record as “soluble at all pH values tested; also recorded: soluble over the entire range studied”. The “isoelectric point (pI)” value in data set [3] worked out at 7.4. Moreover, the α-helix content in data set [4] was 21%. The “SEC peak elution volume(s)” value in data set [5] (25 mM phosphate pH 7.5, Superdex 200 Increase 10/300, 0.75 mL min–1, room temperature, A280) is recorded as 19.2 mL. Moreover, in data set [5] (25 mM phosphate pH 7.5, Superdex 200 Increase 10/300, calculated from calibration with globular protein standards), the SEC n-mer is listed as 1–2. In addition, the oligomerization result in data set [6] was “dimer and hexamer, less stable, detectable only by AUC, α-helical”.

As to GLP-1, the half-life in vivo entry in data set [7] (in vivo) is given as “circa 2 min”.

On to “liraglutide: marketed lipidated GLP-1 analogue, palmitic acid (C16) linked to Lys20 via a γ-glutamic acid spacer”, for which the half-life in vivo in data set [7] (pharmacokinetic data) was 9 to 13 h.

With “semaglutide: marketed lipidated GLP-1 analogue, stearic diacid (C18) lipidation at Lys20”, the oligomeric state entry in data set [8] is “equilibrium of monomers and dimers”. Also, the aggregation on incubation entry in data set [8] (ref Venanzi et al., 20) was “aggregation was observed after several weeks of incubation”. For the same compound, the half-life in vivo in data set [7] (in vivo) was 170 h.
